This is an account of results in PMC12081497, “Design, synthesis, and anti-breast cancer activity evaluation of novel 3-cyanopyridine derivatives as PIM-1 inhibitors” (Molecular Diversity, 2024).

The target of data set [1] is T1, PIM-1 kinase (Homo sapiens, UniProt P11309).
T1 construct: purchased Promega V4032
Conditions: cited from earlier work.

Data set [2] relates to MCF-7 cells. The data set can be described thus: Apoptosis assay, Annexin V/PI flow cytometry. Conditions: MCF-7, 24 h. The format is cell-based, human. The method, then:
Compound 7h was chosen to investigate its abilities in inducing cancer cell apoptosis. Cell cycle analysis of MCF-7 after treatment with compound 7h. To corroborate the ability of the compound to induce apoptosis, cells were stained with Annexin V/PI, incubated for 24 h, and analyzed.
The MCF-7 was treated with compound 7h for 24 h. After treatment, the cells were suspended in 0.5 mL of PBS, collected by centrifugation, and fixed in ice-cold 70% (v/ v) ethanol, centrifuged the ethanol-suspended cells for 5 min, suspended in 5 mL PBS and centrifuged for 5 min, re-suspended with 1 mL PI staining solution (0.1 mg/ml RNase) + PE Annexin V (component no. 51-65875X) and kept in dark at 37 °C for 10 min, finally analyzed by flow cytometry using FACS caliber (Becton Dickinson). The cell cycle distributions were calculated using Phoenix Flow Systems and Verity Software House.

Data set [3] has as its system MCF-7 human cancer cell line. The data set can be described thus: In vitro anti-proliferative MTT assay. The format is cell-based. Conditions: MTT, MCF-7, 48 h treatment, read-out: Cytotoxicity IC50, SD (±), MCF7. The method, then:
In the present study, all synthesized cyanopyridine hybrids were subjected to in vitro cytotoxicity testing using the MTT assay method against MCF-7 human cancer.
All cell lines were maintained in RPMI1640 medium containing 10% FBS at 37 °C in 5% CO2 humidified incubator. Cell proliferation assay was determined by the MTT (3-[4,5-dimethyl-2-thiazolyl]-2,5- diphenyl-2H-tetrazolium bromide) method. Briefly, cells were plated in triplicate wells (3–5 × 10^4 cells/well) of 96-well flat-bottomed plates and incubated overnight prior to drug exposure and then treated with different concentrations of the tested compounds for 48 h. After that, 20 μL of MTT reagent at a final concentration of 0.5 mg/mL was added to each well. Cells were then incubated for 2 h with MTT, after which 100 μL of DMSO solution was added to dissolve the formazan salt resulting from the reduction of MTT and the absorbance was read at 570 nm using an automatic plate reader. The IC50 values were calculated according to inhibition ratios from three independent experiments.
On the technique in general: Tetrazolium dyes change colour on reduction, which living cells bring about.

Data set [4] deals with MCF-7 cells. The data set can be described thus: Flow cytometric cell cycle analysis. Format: cell-based, human. Conditions: for Cell cycle comment (phase of arrest): MCF-7, 24 h. The method, then:
The cell cycle encompasses four distinct phases: G1 phase, S phase (synthesis), G2 phase, and M phase. During G1, cellular amplification and preparation for DNA replication take place. The S phase involves DNA replication and chromatid duplication. In the G2 phase, DNA repair and further growth occur. The M phase is characterized by nuclear division. The investigation of the impact of compound 7h on cell cycle progression and the induction of apoptosis in MCF-7 cells. […] Subsequently, the cells were stained with PI/Annexin V and analyzed using flow cytometry (BD FASCCalibur). Upon analyzing the results (Table 3, Fig. 6), it was evident that the percentage of cell accumulation in the S phase increased in MCF-7 cells treated with compound 7h after 24 h of incubation.
Cell cycle analysis MCF-7 cell was seeded into six-well plates at a density of 2 × 10^5 cell per well and incubated for 24 h. The cell was cultured in RPMI 1640 supplemented with fetal bovine serum (FBS, 10%) and incubated at 37 °C and 5% CO2. The medium was removed and replaced with medium (final DMSO concentration, 1% v/v) containing compound 7h (0.283 µM). After incubation for 24 h and 48 h, the cell layer was trypsinized and washed with cold phosphate buffered saline (PBS) and fixed with 70% ethanol. The fixed cells were rinsed with PBS and then stained with the DNA fluorochrome PI in a solution containing Triton X-100 as well as RNase, keep 15 min at 37 °C according to the instruction manual. Then the samples were analyzed with a FACS Caliber flow cytometer (Becton Dickinson & Co., Franklin Lakes, NJ). The number of cells analyzed for each sample was 10,000 [39].
(A flow cytometer gives signals particle by particle.)

Data set [5] addresses T1, PIM-1 kinase. The data set can be described thus: PIM-1 kinase inhibition assay (Promega PIM-1 kinase assay kit, ADP-Glo). The format is biochemical. Conditions: concentrations 10, 1, 0.1 and 0.01 µM, read-out: PIM1-Kinase IC50.

Entries after “also recorded” stand apart in the source; their conditions may differ. Where two headings read alike, the source gives them in different places.

T1 sequence (P11309 whole entry): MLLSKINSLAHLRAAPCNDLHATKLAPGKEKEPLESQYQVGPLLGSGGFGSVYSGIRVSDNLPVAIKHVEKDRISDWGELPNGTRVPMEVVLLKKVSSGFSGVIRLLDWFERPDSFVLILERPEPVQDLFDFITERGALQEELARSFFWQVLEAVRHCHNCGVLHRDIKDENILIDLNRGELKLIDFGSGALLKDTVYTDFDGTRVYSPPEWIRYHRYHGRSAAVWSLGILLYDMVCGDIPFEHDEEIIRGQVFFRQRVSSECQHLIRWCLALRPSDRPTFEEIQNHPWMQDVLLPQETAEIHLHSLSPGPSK

On to `N#CC1=C(c2cc3ccccc3nc2Cl)C=C(c2ccc(Br)cc2)NC1Cl` (stereo not drawn) [C], for which the IC50 on PIM-1 kinase [1] is 0.46 µM.
`COc1cc(-c2cc(-c3cccnc3)[nH]c(=O)c2C#N)ccc1OCC(=O)Nc1ccccc1` [7h, 2-(4-(3-Cyano-2-oxo-6-(pyridin-3-yl)-1,2-dihydropyridin-4-yl)-2-methoxyphenoxy)-N-phenylacetamide] came in with a melting point of 295 to 297 °C. In the data set with MCF-7 cells [2] (control 0.27), the “Apoptosis Late” value stood at 22.81%. In the data set with MCF-7 cells [2] (control 0.41), the “Apoptosis Early” value is reported as 15.42%. In addition, the Necrosis in the data set with MCF-7 cells [2] (control 1.61) was determined as 3.95%. Further, the “Apoptosis Total” value in the data set with MCF-7 cells [2] (control 2.29) is given as 42.18%. Also, the IC50 in data set [3] (Homo sapiens, MCF7, 48 h) was found to be 1.89 µM. In addition, in data set [3], the IC50 is 1.89 ± 0.08 µM. The “Cell cycle comment (phase of arrest)” value with MCF-7 cells [4] is “arrested the tumor cells at the S phase; also recorded: cell cycle arrest at the S phase”. In addition, the “Cell cycle comment (phase of arrest)” value in the data set on MCF-7 cells [4] (listed as 7 h) was “Cell growth arrest@ S”. The “DNA content %G2/M” value in the data set with MCF-7 cells [4] (MCF-7, IC50 concentration of 7h, 24 h, control 13.14) turned out to be 12.11%. Further, the “DNA content %S” value with MCF-7 cells [4] (MCF-7, IC50 concentration of 7h, 24 h, control 25.83) is reported as 33.61%. In addition, the “DNA content %G0-G1” value in the data set with MCF-7 cells [4] (MCF-7, IC50 concentration of 7h, 24 h, control 61.03) is given as 54.28%. Further, the IC50 at PIM-1 kinase [5] is 0.281 ± 0.012 µM.
Turning to `COc1ccc(-c2cc(-c3ccc(OCC(=O)Nc4ccccc4)c(OC)c3)c(C#N)c(OC)n2)cc1` [8c, 2-(4-(3-Cyano-2-methoxy-6-(4-methoxyphenyl)pyridin-4-yl)-2-methoxyphenoxy)-N-phenylacetamide], the melting point lay in the range of 188 to 190 °C. The IC50 in data set [3] (Homo sapiens, MCF7, 48 h) was 3.74 ± 0.15 µM. Also, in data set [3], the IC50 was 3.75 ± 0.15 µM.
Turning to `COc1nc(-c2ccc(OCc3ccccc3)cc2)cc(-c2ccc(N(C)C)cc2)c1C#N` [F], the 50% inhibitory concentration (IC50) at PIM-1 kinase [1] was 0.13 µM.

What is called IC50 is the concentration that inhibits the measured activity by half. Broadly, the melting point is the temperature of the solid-liquid transition.
